Laboratory results from patent publication US10703733B2, “MCL-1 inhibitors” (Gilead Sciences, Inc., priority 2018, dated 2020).
pEC50, pIC50: −log10 of the molar value. Read-outs that look alike come from different tables or passages of the source.

What was measured:
[1] = target: MCL-1/Bim interaction (recombinant human MCL-1 protein, residues 171-327; biotinylated human Bim peptide, residues 51-76) (Homo sapiens (Human), UniProt Q07820); assay: MCL-1/Bim Binding AlphaLISA Assay; details: 0.0625 nM 6xHis-Mcl-1 (171-327), 0.0625 nM biotinylated-Bim peptide
Method in brief: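 Compounds first sat 1 h with MCL-1 (171-327, 0.0625 nM), followed by 2 h with biotin-Bim 51-76 (0.0625 nM), then sequential 1 h anti-His acceptor and streptavidin donor bead steps; buffer Hepes pH 7.5 with NaCl, Brij 35, DTT, BSA. AlphaScreen signal converted to % inhibition using DMSO (negative) and protein/peptide-free (positive) controls.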

SKBR3 cells = assay: SKBR3 Cell Viability Assay (CellTiter Glo); format: cell-based; details: CellTiter Glo luminescence, read-out: MCL-1 CV SKBR3 EC50
Method in brief: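 Viability read as CellTiter Glo luminescence after 72 h of compound exposure at 37° C./5% CO2, using 6,000 SKBR3 cells per well in McCoy 5A with 10% FBS. Percent inhibition scaled between DMSO wells and 10 μM puromycin wells.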

MCL-1/Bim interaction (recombinant human MCL-1 protein, residues 171-327; biotinylated human Bim peptide, residues 51-76), sequence (Q07820 171-327): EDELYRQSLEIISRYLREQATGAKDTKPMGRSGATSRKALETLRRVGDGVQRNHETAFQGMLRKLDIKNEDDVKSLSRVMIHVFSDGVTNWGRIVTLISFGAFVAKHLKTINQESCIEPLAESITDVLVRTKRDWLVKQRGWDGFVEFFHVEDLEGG

Row | pIC50 [1] | pEC50 (SKBR3 cells; Homo sapiens, SK-BR-3, 72 h) | pEC50 (SKBR3 cells; 72 hours) | SMILES
1 | 10.34 | 7.02 |  | CO[C@H]1/C=C/C[C@H](C)C[S@@](=O)(NC(=O)N2CC(C(C)(C)OC)C2)=NC(=O)c2ccc3c(c2)N(C[C@@H]2CC[C@H]21)C[C@@]1(CCCc2cc(Cl)ccc21)CO3 [Example 265]
2 | 9.88 | 6.83 |  | CO[C@H]1/C=C/C[C@H](C)C[S@@](=O)(NC(=O)N[C@@H]2[C@@H]3COC[C@@H]32)=NC(=O)c2ccc3c(c2)N(C[C@@H]2CC[C@H]21)C[C@@]1(CCCc2cc(Cl)ccc21)CO3 [Example 449]
3 | 9.83 | 6.84 |  | CO[C@H]1/C=C/C[C@H](C)C[S@@](=O)(NC(=O)c2cc3n(c2)CCN(S(C)(=O)=O)C3)=NC(=O)c2ccc3c(c2)N(C[C@@H]2CC[C@H]21)C[C@@]1(CCCc2cc(Cl)ccc21)CO3 [Example 455]
4 | 9.99 | 6.59 |  | COc1nn(C)cc1C(=O)N[S@@]1(=O)=NC(=O)c2ccc3c(c2)N(C[C@@H]2CC[C@H]2[C@H](O)/C=C/C[C@H](C)[C@H]1C)C[C@@]1(CCCc2cc(Cl)ccc21)CO3 [Example 353]
5 | 9.67 | 6.88 |  | CO[C@H]1/C=C/C[C@H](C)C[S@@](=O)(NC(=O)c2cc3n(c2)CC=C3)=NC(=O)c2ccc3c(c2)N(C[C@@H]2CC[C@H]21)C[C@@]1(CCCc2cc(Cl)ccc21)CO3 [Example 135]
6 | 9.88 |  | 6.71 | CO[C@H]1/C=C/C[C@H](C)C[S@@](=O)(NC(=O)N[C@@H]2C[C@H]2c2cnn(C)c2)=NC(=O)c2ccc3c(c2)N(C[C@@H]2CC[C@H]21)C[C@@]1(CCCc2cc(Cl)ccc21)CO3 (single isomer, unassigned) [Example 183]
7 | 10.00 |  | 6.34 | CO[C@H]1/C=C/CCC[S@@](=O)(NC(=O)[C@@H]2C[C@H]2c2ccnn2C)=NC(=O)c2ccc3c(c2)N(C[C@@H]2CC[C@H]21)C[C@@]1(CCCc2cc(Cl)ccc21)CO3 [Example 83]
8 | 10.80 | 7.33 |  | CO[C@H]1/C=C/C[C@H](C)C[S@@](=O)(NC(=O)N2CC(C#N)C2)=NC(=O)c2ccc3c(c2)N(C[C@@H]2CC[C@H]21)C[C@@]1(CCCc2cc(Cl)ccc21)CO3 [Example 233]
9 | 10.34 | 6.98 |  | CO[C@H]1/C=C/C[C@H](C)C[S@@](=O)(NC(=O)c2cn(C)nc2OCC2CC2)=NC(=O)c2ccc3c(c2)N(C[C@@H]2CC[C@H]21)C[C@@]1(CCCc2cc(Cl)ccc21)CO3 [Example 221]
10 | 10.04 | 6.39 |  | CO[C@H]1/C=C/CCC[S@@](=O)(NC(=O)COC2CCN(C(=O)N(C)C)CC2)=NC(=O)c2ccc3c(c2)N(C[C@@H]2CC[C@H]21)C[C@@]1(CCCc2cc(Cl)ccc21)CO3 [Example 417]
11 | 10.12 | 7.28 |  | COC[C@@H]1Cn2cc(C(=O)N[S@@]3(=O)=NC(=O)c4ccc5c(c4)N(C[C@@H]4CC[C@H]4[C@@H](O)/C=C/C[C@H](C)C3)C[C@@]3(CCCc4cc(Cl)ccc43)CO5)cc2CO1 [Example 326]
12 | 10.54 | 7.98 |  | CO[C@H]1/C=C/C[C@H](C)C[S@@](=O)(NC(=O)c2cc(CN3CCN(C4COC4)CC3)n(C)c2)=NC(=O)c2ccc3c(c2)N(C[C@@H]2CC[C@H]21)C[C@@]1(CCCc2cc(Cl)ccc21)CO3 [Example 309]
13 | 9.63 | 6.91 |  | CCCn1cc(C(=O)N[S@@]2(=O)=NC(=O)c3ccc4c(c3)N(C[C@@H]3CC[C@H]3[C@@H](OC)/C=C/C[C@H](C)C2)C[C@@]2(CCCc3cc(Cl)ccc32)CO4)cn1 [Example 420]
14 | 10.16 | 7.11 |  | COc1nn(C)cc1C(=O)N[S@@]1(=O)=NC(=O)c2ccc3c(c2)N(C[C@@H]2CC[C@H]2[C@@H](OC)/C=C/C[C@H](C)[C@H]1C)C[C@@]1(CCCc2cc(Cl)ccc21)CO3 [Example 188]
15 | 10.07 |  | 7.54 | CO[C@H]1/C=C/C[C@H](C)C[S@@](=O)(NC(=O)NC2CC2CC(F)F)=NC(=O)c2ccc3c(c2)N(C[C@@H]2CC[C@H]21)C[C@@]1(CCCc2cc(Cl)ccc21)CO3 (single isomer, unassigned) [Example 282]
16 | 9.05 | 6.04 |  | CO[C@H]1/C=C/CCC[S@@](=O)(NC(=O)CCC(F)(F)F)=NC(=O)c2ccc3c(c2)N(C[C@@H]2CC[C@H]21)C[C@@]1(CCCc2cc(Cl)ccc21)CO3 [Example 94]
17 | 10.00 | 6.76 |  | CO[C@H]1/C=C/C[C@H](C)C[S@@](=O)(NC(=O)N2CC3(CCOC3)C2)=NC(=O)c2ccc3c(c2)N(C[C@@H]2CC[C@H]21)C[C@@]1(CCCc2cc(Cl)ccc21)CO3 [Example 456]
18 | 10.15 | 6.77 |  | CO[C@H]1/C=C/C[C@H](C)C[S@@](=O)(NC(=O)c2ccc3ncnn3c2)=NC(=O)c2ccc3c(c2)N(C[C@@H]2CC[C@H]21)C[C@@]1(CCCc2cc(Cl)ccc21)CO3 [Example 432]

Row | pIC50 [1] | pEC50 (SKBR3 cells; Homo sapiens, SK-BR-3, 72 h) | pEC50 (SKBR3 cells; 72 hours) | SMILES
19 | 10.42 | 7.14 |  | COCCNC(=O)N[S@@]1(=O)=NC(=O)c2ccc3c(c2)N(C[C@@H]2CC[C@H]2[C@@H](OC)/C=C/C[C@H](C)C1)C[C@@]1(CCCc2cc(Cl)ccc21)CO3 [Example 132]
20 | 9.92 | 7.01 |  | COC[C@@H]1CC[C@H]1NC(=O)N[S@@]1(=O)=NC(=O)c2ccc3c(c2)N(C[C@@H]2CC[C@H]2[C@@H](OC)/C=C/C[C@H](C)C1)C[C@@]1(CCCc2cc(Cl)ccc21)CO3 [Example 307]
21 | 10.52 | 7.25 |  | CO[C@H]1/C=C/C[C@H](C)C[S@@](=O)(NC(=O)N2CCC(OC(F)F)CC2)=NC(=O)c2ccc3c(c2)N(C[C@@H]2CC[C@H]21)C[C@@]1(CCCc2cc(Cl)ccc21)CO3 [Example 330]
22 | 10.18 | 6.77 |  | CO[C@H]1/C=C/C[C@H](C)C[S@@](=O)(NC(=O)N[C@H]2C[C@@](C)(O)C2)=NC(=O)c2ccc3c(c2)N(C[C@@H]2CC[C@H]21)C[C@@]1(CCCc2cc(Cl)ccc21)CO3 [Example 186]
23 | 8.96 | 5.96 |  | CO[C@H]1/C=C/CCC[S@@](=O)(NC(=O)NC(C)C)=NC(=O)c2ccc3c(c2)N(C[C@@H]2CC[C@H]21)C[C@@]1(CCCc2cc(Cl)ccc21)CO3 [Example 19]
24 | 10.15 | 7.41 |  | CO[C@H]1/C=C/C[C@H](C)C[S@@](=O)(NC(=O)N[C@H]2C[C@H](OC)C2)=NC(=O)c2ccc3c(c2)N(C[C@@H]2CC[C@H]21)C[C@@]1(CCCc2cc(Cl)ccc21)CO3 [Example 150]
25 | 9.60 | 6.46 |  | COc1nc(N2CCOCC2)ncc1C(=O)N[S@@]1(=O)=NC(=O)c2ccc3c(c2)N(C[C@@H]2CC[C@H]2[C@@H](OC)/C=C/C[C@H](C)C1)C[C@@]1(CCCc2cc(Cl)ccc21)CO3 [Example 462]
26 | 10.39 | 6.89 |  | CO[C@H]1/C=C/C[C@H](C)C[S@@](=O)(NC(=O)c2cc3n(n2)CCCO3)=NC(=O)c2ccc3c(c2)N(C[C@@H]2CC[C@H]21)C[C@@]1(CCCc2cc(Cl)ccc21)CO3 [Example 197]
27 | 10.40 | 7.38 |  | COc1nn(C)cc1C(=O)N[S@@]1(=O)=NC(=O)c2ccc3c(c2)N(C[C@@H]2CC[C@H]2[C@@H](OC(=O)CN(C)C)/C=C/C[C@H](C)C1)C[C@@]1(CCCc2cc(Cl)ccc21)CO3 [Example 301]
28 | 9.84 | 6.87 |  | CO[C@H]1/C=C/C[C@H](C)C[S@@](=O)(NC(=O)N[C@@H]2C[C@H]2c2ccnn2C)=NC(=O)c2ccc3c(c2)N(C[C@@H]2CC[C@H]21)C[C@@]1(CCCc2cc(Cl)ccc21)CO3 [Example 182]
29 | 10.43 | 7.19 |  | COC1CN(C2CN(C(=O)N[S@@]3(=O)=NC(=O)c4ccc5c(c4)N(C[C@@H]4CC[C@H]4[C@@H](OC)/C=C/C[C@H](C)C3)C[C@@]3(CCCc4cc(Cl)ccc43)CO5)C2)C1 [Example 286]
30 | 9.70 | 5.68 |  | CO[C@H]1/C=C/CCC[S@@](=O)(NC(=O)CCc2csc(C)n2)=NC(=O)c2ccc3c(c2)N(C[C@@H]2CC[C@H]21)C[C@@]1(CCCc2cc(Cl)ccc21)CO3 [Example 99]
31 | 8.94 |  | 5.93 | COc1nn(C)cc1C(=O)NS1(=O)=NC(=O)c2ccc3c(c2)N(C[C@@H]2CC[C@H]2[C@@H](OC)/C=C/[C@H](OC(=O)CCc2ccccc2)[C@H](C)C1)C[C@@]1(CCCc2cc(Cl)ccc21)CO3 (single isomer, unassigned) [Example 378]
32 | 10.42 |  | 7.72 | COc1cn(C)cc1C(=O)N[S@@]1(=O)=NC(=O)c2ccc3c(c2)N(C[C@@H]2CC[C@H]2[C@@H](O)/C=C/C[C@H](C)[C@H]1C)C[C@@]1(CCCc2cc(Cl)ccc21)CO3 [Example 359]
33 | 10.47 | 7.31 |  | CO[C@H]1/C=C/C[C@H](C)C[S@@](=O)(NC(=O)N[C@H]2C[C@H]2OC)=NC(=O)c2ccc3c(c2)N(C[C@@H]2CC[C@H]21)C[C@@]1(CCCc2cc(Cl)ccc21)CO3 [Example 317]
34 | 10.13 | 6.64 |  | CO[C@H]1/C=C/C[C@H](C)C[S@@](=O)(NC(=O)N[C@@H]2C[C@H]2C(F)F)=NC(=O)c2ccc3c(c2)N(C[C@@H]2CC[C@H]21)C[C@@]1(CCCc2cc(Cl)ccc21)CO3 [Example 310]
35 | 9.73 | 6.56 |  | COC(=O)N1CC[C@@H](C(=O)N[S@@]2(=O)=NC(=O)c3ccc4c(c3)N(C[C@@H]3CC[C@H]3[C@@H](OC)/C=C/C[C@H](C)C2)C[C@@]2(CCCc3cc(Cl)ccc32)CO4)C1 [Example 438]

Row | SMILES | pIC50 [1] | pEC50 (SKBR3 cells; Homo sapiens, SK-BR-3, 72 h) | pEC50 (SKBR3 cells; 72 hours)
36 | COc1nn(C)cc1C(=O)N[S@@]1(=O)=NC(=O)c2ccc3c(c2)N(C[C@@H]2CC[C@H]2[C@@H](OC)/C=C/[C@H](OC(=O)N(C)C)[C@H](C)C1C(=O)N(C)C)C[C@@]1(CCCc2cc(Cl)ccc21)CO3 (stereo partly drawn) [Example 395] | 8.28 |  | 5.21
